Reference: patent US20240058240A1, “COMPOUNDS AS SELF-TANNING SUBSTANCES AND TANNING COMPOSITIONS THEREOF” (CHEMCOM S.A., priority 2020, published 2024)

Legend:
Format in all cases: cell-based
[1] = tested on: Normal Human Epidermal Melanocytes moderately pigmented (NHEMs-MP); assay: MTS cytotoxicity test on NHEMs-MP; conditions: 4 days of treatment, 5 concentrations, threshold 80% viability
Description: (§1) This primary culture was cultivated in medium M254 supplemented (LIFE TECHNOLOGIES; ref:M-254-500) with HMGS (human melanocyte growth supplement; LIFE TECHNOLOGIES; ref: S-002-5) and gentamycin (LIFE TECHNOLOGIES; ref:15710-049) and maintained in a humidified incubator at 37° C. with a 5% CO2 atmosphere. For experiments (see below), cells were seeded at a density of 9×10^4 cells/well (100 μL/well) and cultured at 37° C. under a 5% CO2.
NHEMs moderately pigmented (NHEMs-MP) were seeded in 24-wells plates at a density of 9×10^4 cells/well, 72 h before the treatment with the different concentrations of 2 different compounds according to embodiments of the invention. After 2 days of treatment with these compounds, compounds were re-applied for 2 additional days according to the experimental scheme as shown in FIG. 1. Sodium dodecyl sulfate (SDS) at 0.05% was used as cytotoxicity positive control in order to validate the experiment. […]
An MTS assay (3-(4,5-dimethythiazol-2-yl)-5-(3-carboxymethoxyphenyl)-2-(4-sulfophenyl)-2H-tetrazolium) was performed to measure the maximal concentrations the compounds which can be used in the culture medium of NHEMs-MP without affecting cell viability. […] Cell viability was analyzed, and toxicity/viability was expressed in percentage relative to the ethanol treated condition which was fixed at 100%. […]

OR7C1 = molecular target: T1, OR7C1 (Homo sapiens, UniProt O76099); assay: Luciferase-based CRE gene reporter assay, dose-response on OR7C1; conditions: negative logarithm of the EC50 in Moles; semi-logarithmic dilutions from 1 mM to 316 nM on OR7C1; read-out: -LogEC50 (average n > 3) (converted)
T1 construct: transfected with a plasmid containing the CRE-luciferase and a plasmid containing the olfactory receptor; expressed in transfected cells; host or cells: HEK293T-RTP1A1/RTP2 (HEK293T stably expressing the chaperones RTP1A1 and RTP2)
T1 sequence (O76099 1-320): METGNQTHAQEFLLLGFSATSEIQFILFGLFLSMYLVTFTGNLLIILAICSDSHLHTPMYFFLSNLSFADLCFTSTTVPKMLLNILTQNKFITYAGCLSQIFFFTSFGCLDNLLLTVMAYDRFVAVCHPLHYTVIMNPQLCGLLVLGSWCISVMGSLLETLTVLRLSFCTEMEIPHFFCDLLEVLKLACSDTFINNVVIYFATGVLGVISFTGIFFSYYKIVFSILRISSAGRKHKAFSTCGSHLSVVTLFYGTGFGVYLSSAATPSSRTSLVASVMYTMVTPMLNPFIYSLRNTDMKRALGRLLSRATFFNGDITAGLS
Description: HEK293T-RTP1A1/RTP2 cells were maintained in minimal essential medium (EMEM, Lonza) containing 10% fetal bovine serum (M10). These cells were generated by transfecting HEK293T (Thermofisher Scientific, cat ref: R70007) with an expression vector containing the sequences of the chaperone proteins RTP1A1 and RTP2 and a resistance gene to puromycin, using Lipofectamine 2000. The recombinant cell population, used in these experiments, was selected by adding 10 μg/ml of puromycin into the culture medium and subsequently subcloned (WO 2014/191047 A1).
Potential OR7C1 agonists were diluted at a concentration of 1 mole/liter (M) into an organic solvent such as Dimethyl Sulfoxide (DMSO) or Ethanol to generate stock solutions. […]
For concentration-response analysis, serial dilutions of the tested molecules were prepared from stock solutions in EMEM plated into 96-well plates.
For the dose-response analysis, a Luciferase-based gene reporter assay (Promega, Leiden, the Netherlands) was used. Briefly, cells were platted on poly-D-lysine-coated 96-well plates and transfected with a plasmid containing the CRE-luciferase and a plasmid containing the olfactory receptor. Sixteen hours after transfection, the culture medium was replaced by serum-free EMEM containing the tested compounds at a determined concentration. After four hours of incubation at 37° C., cells were lysed and processed for luminescence measurement. Luminescence emission was recorded. Results were expressed as luciferase activity ([…] (RLU)) or as percentage of the response induced by 10 μM of the adenylate cyclase activator Forskolin. An empty plasmid is used as negative control.
Dose-response analyses using the luciferase-based reporter assay were performed using semi-logarithmic serial dilutions of the compounds, from 1 mM to 316 nM, on OR7C1. 46 compounds were tested in concentration-response analyses. In each experiment, an empty vector (pEFIBRHO) was used as negative control. Values are given as the negative logarithm of the EC50 in Moles.

[2] = tested on: Normal Human Epidermal Melanocytes moderately pigmented (NHEMs-MP); assay: Melanin content (pigmentation) of NHEMs-MP in culture
Description: as §1
The NHEMs-MP were treated for 4 days, with a medium refresh after 2 days of treatment—Amberketal, Ambermax and with the reference molecule (L-DOPA)—when the culture media are collected and stored at −80° C. as shown in FIG. 2. At the end of the treatments, the culture media were collected a second time, pooled with the media collected at day 2 and centrifuged for 30 minutes (14000 rpm). The pellet obtained after centrifugation and NHEMs-MP treated cells were lysed in 150 μl of a NaOH 1M solution. 5 μl of each cell lysate were used for protein quantification using BCA protein assay. The remaining 145 μl of the lysates were heated at 80° C. during 1 h. The optical density was measured at 490 nm and the melanin content was determined by comparison with a standard curve of synthetic melanin and reported to the quantity of protein present in each cell well tested.
The effects of these 2 compounds, namely Ambermax and Amberketal, on the melanin production were evaluated as described above. Based on MTS results, moderately pigmented (MP) NHEMs were treated with these 2 compounds at one concentration (100 μM for Amberketal and 3.16 μM for Ambermax) for 4 days. In parallel, cell cultures were also treated with Ethanol 0.1%, a concentration corresponding to the test compounds solvent, and with a known modulator of pigmentation (L-DOPA 50 μM). […] At the end of the treatments (D4), cells were lysed, the melanin content was quantified by spectrophotometry and normalized to the amount of proteins. Extracellular melanin was also evaluated by the same methodology after centrifugation of the culture media.

SMILES | cell toxicity (MTS, viability relative to ethanol treated condition) [1] | EC50 (OR7C1) | increase of melanin present in the media (extracellular) ([2]; 100 μM, 4 days, NHEMs-MP, in comparison with DOPA (50 μM), p<0.01, n=10) | increase of intracellular melanin content ([2]; 100 μM, 4 days, NHEMs-MP, in comparison with DOPA (50 μM), p<0.01, n=12) | melanin content in NHEMs ([2]; 50 μM, 4 days of treatment)
CC(=O)C1(C)CCC2=C(C1C)C(C)(C)CCC2 (stereo not drawn) [Compound 4, Georgywood] | no significant cell toxicity | 25.1 µM | – | – | –
CC12CCC3C(CCC4C(C)(C)CCCC43C)(CO1)O2 (stereo not drawn) [Compound 17, Amberketal] | – | 2.51 µM | +99% | +40% | –
N[C@@H](Cc1ccc(O)c(O)c1)C(=O)O [L-DOPA, 3,4-dihydroxyphenylalanine, reference compound] | – | – | – | – | enhanced slightly the melanin content
